Results reported in patent publication US20250228239A1, “MOLECULES HAVING PESTICIDAL UTILITY, AND INTERMEDIATES, COMPOSITIONS, AND PROCESSES, RELATED THERETO” (priority 2024, published 2025).

Tests used:
Format in all cases: in vivo
[1] = tested on: Beet Armyworm (Spodoptera exigua, LAPHEG); experiment: Bioassays on Beet Armyworm (BAW), 128-well diet tray assay; details: Spodoptera exigua; Table ABC: Biological Results; species BAW; read-out: BAW
Summary of the method: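 One to five second-instar larvae per well on artificial diet surface-treated with 50 μg/cm^2 test molecule (applied in 90:10 acetone-water, dried), eight wells per compound. Trays held vented at 25° C., 14:10 light-dark for five to seven days; percent mortality averaged over the eight wells.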

[2] = tested on: Cabbage Looper (Trichoplusia ni, TRIPNI); experiment: Bioassays on Cabbage Looper (CL), 128-well diet tray assay; details: Trichoplusia ni; Table ABC: Biological Results; species CL; read-out: CL
Summary of the method: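 Second-instar larvae (1–5 per well) placed on artificial diet surface-treated with 50 μg/cm^2 test molecule applied in 90:10 acetone-water and dried. Held at 25° C., 14:10 light-dark, for five to seven days. Percent mortality scored per well and averaged over eight wells.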

[3] = tested on: Yellow Fever Mosquito (Aedes aegypti, AEDSAE); details: Table ABC: Biological Results; species YFM
Summary of the method: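 Compounds from DMSO master plates (4000 ppm stock) diluted in 90:10 water/acetone, then dispensed into six replicate plates and infested with ~1-day-old Aedes aegypti larvae in liver-powder water. Held covered at room temperature for 3 days; each well scored for larval mortality and graded on a rating scale.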

Structure (SMILES) | pest or weed control at 50 µg/cm2 [1] [%] | pest or weed control at 50 µg/cm2 [2] [%] | YFM [3]
O=C(Nc1ccc(F)c(NC(=O)C(F)(F)F)c1F)c1cc(NC(=O)[C@H]2[C@H](c3ccc(F)c(C(F)(F)F)c3)C2(Cl)Cl)ccc1Cl [F1169, 2-chloro-5-((1R,3R)-2,2-dichloro-3-(4-fluoro-3-(trifluoromethyl)phenyl)cyclopropane-1-carboxamido)-N-(2,4-difluoro-3-(2,2,2-trifluoroacetamido)phenyl)benzamide] | 50 to 100 | 50 to 100 | A (80–100)
O=C(Nc1ccc(F)c(NC(=O)C(F)(F)Cl)c1F)c1cc(NC(=O)[C@H]2[C@H](c3ccc(F)c(C(F)(F)F)c3)C2(Cl)Cl)ccc1Cl [F1170, 2-Chloro-N-(3-(2-chloro-2,2-difluoroacetamido)-2,4-difluorophenyl)-5-((1R,3R)-2,2-dichloro-3-(4-fluoro-3-(trifluoromethyl)phenyl)cyclopropane-1-carboxamido)benzamide] | 50 to 100 | 50 to 100 | A (80–100)
O=C(Nc1ccc(F)c(NC(=O)C(Cl)Cl)c1F)c1cc(NC(=O)[C@H]2[C@H](c3ccc(F)c(C(F)(F)F)c3)C2(Cl)Cl)ccc1Cl [F1174, 2-Chloro-5-((1R,3R)-2,2-dichloro-3-(4-fluoro-3-(trifluoromethyl)phenyl)cyclopropane-1-carboxamido)-N-(3-(2,2-dichloroacetamido)-2,4-difluorophenyl)benzamide] | 50 to 100 | 50 to 100 | A (80–100)
O=C(Nc1ccc(F)c(NC(=O)C(F)F)c1F)c1cc(NC(=O)[C@H]2[C@H](c3ccc(F)c(C(F)(F)F)c3)C2(Cl)Cl)ccc1Cl [F1175, 2-Chloro-5-((1R,3R)-2,2-dichloro-3-(4-fluoro-3-(trifluoromethyl)phenyl)cyclopropane-1-carboxamido)-N-(3-(2,2-difluoroacetamido)-2,4-difluorophenyl)benzamide] | 50 to 100 | 50 to 100 | A (80–100)
NCCCC(=O)Nc1c(F)ccc(NC(=O)c2cc(NC(=O)[C@H]3[C@H](c4ccc(Cl)c(Cl)c4)C3(Cl)Cl)ccc2Cl)c1F [F1201, N-(3-(4-Aminobutanamido)-2,4-difluorophenyl)-2-chloro-5-((1R,3R)-2,2-dichloro-3-(3,4-dichlorophenyl)cyclopropane-1-carboxamido)benzamide] | 50 to 100 | 50 to 100 | A (80–100)
O=C(Nc1ccc(F)cc1F)c1cc(NC(=O)C2C(c3cc(Cl)cc(S(F)(F)(F)(F)F)c3)C2(Cl)Cl)ccc1Cl (stereo not drawn) [F1233, cis-2-Chloro-5-(2,2-dichloro-3-(3-chloro-5-(pentafluoro-λ^6-sulfanyl)phenyl)cyclopropane-1-carboxamido)-I-(2,4-difluorophenyl)benzamide] | 50 to 100 | 50 to 100 | A (80–100)
CC(F)(F)C(=O)Nc1c(F)ccc(NC(=O)c2cc(NC(=O)[C@H]3[C@H](c4ccc(Cl)c(Cl)c4)C3(Cl)Cl)ccc2Cl)c1F [F1249, 2-Chloro-5-((1R,3R)-2,2-dichloro-3-(3,4-dichlorophenyl)cyclopropane-1-carboxamido)-N-(3-(2,2-difluoropropanamido)-2,4-difluorophenyl)benzamide] | 50 to 100 | 50 to 100 | A (80–100)
O=C(Nc1ccc(F)c(NC(=O)C(Cl)Cl)c1F)c1cc(NC(=O)[C@H]2[C@H](c3ccc(Cl)c(Cl)c3)C2(Cl)Cl)ccc1Cl [F1252, 2-Chloro-5-((1R,3R)-2,2-dichloro-3-(3,4-dichlorophenyl)cyclopropane-1-carboxamido)-N-(3-(2,2-dichloroacetamido)-2,4-difluorophenyl)benzamide] | 50 to 100 | 50 to 100 | A (80–100)
O=C(Nc1c(F)ccc(NC(=O)c2cc(NC(=O)[C@H]3[C@H](c4ccc(Cl)c(Cl)c4)C3(Cl)Cl)ccc2Cl)c1F)c1ccccc1 [F1253, N-(3-Benzamido-2,4-difluorophenyl)-2-chloro-5-((1R,3R)-2,2-dichloro-3-(3,4-dichlorophenyl)cyclopropane-1-carboxamido)benzamide] | 50 to 100 | 50 to 100 | A (80–100)
COCC(=O)Nc1c(F)ccc(NC(=O)c2cc(NC(=O)[C@H]3[C@H](c4ccc(Cl)c(Cl)c4)C3(Cl)Cl)ccc2Cl)c1F [F1254, 2-Chloro-5-((1R,3R)-2,2-dichloro-3-(3,4-dichlorophenyl)cyclopropane-1-carboxamido)-N-(2,4-difluoro-3-(2-methoxyacetamido)phenyl)benzamide] | 50 to 100 | 50 to 100 | A (80–100)
N#CC1(C(=O)Nc2c(F)ccc(NC(=O)c3cc(NC(=O)[C@H]4[C@H](c5ccc(F)c(C(F)(F)F)c5)C4(Cl)Cl)ccc3Cl)c2F)CC1 [F1263, 2-Chloro-N-(3-(1-cyanocyclopropane-1-carboxamido)-2,4-difluorophenyl)-5-((1R,3R)-2,2-dichloro-3-(4-fluoro-3-(trifluoromethyl)phenyl)cyclopropane-1-carboxamido)benzamide] | 50 to 100 | 50 to 100 | A (80–100)
O=C(Nc1ccc(F)c(NC(=O)C2CC2)c1F)c1cc(NC(=O)[C@H]2[C@H](c3ccc(F)c(C(F)(F)F)c3)C2(Cl)Cl)ccc1Cl [F1264, 2-Chloro-N-(3-(cyclopropanecarboxamido)-2,4-difluorophenyl)-5-((1R,3R)-2,2-dichloro-3-(4-fluoro-3-(trifluoromethyl)phenyl)cyclopropane-1-carboxamido)benzamide] | 50 to 100 | 50 to 100 | A (80–100)
O=C(Nc1ccc(F)c(NC(=O)C(F)F)c1F)c1cc(NC(=O)[C@H]2[C@H](c3ccc(F)c(Cl)c3)C2(Cl)Cl)ccc1Cl [F1270, 2-Chloro-5-((1R,3R)-2,2-dichloro-3-(3-chloro-4-fluorophenyl)cyclopropane-1-carboxamido)-N-(3-(2,2-difluoroacetamido)-2,4-difluorophenyl)benzamide] | 50 to 100 | 50 to 100 | A (80–100)
CN(C(=O)C(F)F)c1c(F)ccc(NC(=O)c2cc(NC(=O)[C@H]3[C@H](c4ccc(Cl)c(Cl)c4)C3(Cl)Cl)ccc2Cl)c1F [F1271, 2-Chloro-5-((1R,3R)-2,2-dichloro-3-(3,4-dichlorophenyl)cyclopropane-1-carboxamido)-N-(3-(2,2-difluoro-N-methylacetamido)-2,4-difluorophenyl)benzamide] | 50 to 100 | 50 to 100 | A (80–100)
CC1(C(=O)Nc2c(F)ccc(NC(=O)c3cc(NC(=O)[C@H]4[C@H](c5ccc(F)c(C(F)(F)F)c5)C4(Cl)Cl)ccc3Cl)c2F)CC1(Cl)Cl (stereo partly drawn) [F1273, 2-Chloro-N-(3-(2,2-dichloro-1-methylcyclopropane-1-carboxamido)-2,4-difluorophenyl)-5-((1R,3R)-2,2-dichloro-3-(4-fluoro-3-(trifluoromethyl)phenyl)cyclopropane-1-carboxamido)benzamide] | 50 to 100 | 50 to 100 | A (80–100)
O=C(Nc1ccc(F)c(NC(=O)C2CC2(F)F)c1F)c1cc(NC(=O)[C@H]2[C@H](c3ccc(F)c(C(F)(F)F)c3)C2(Cl)Cl)ccc1Cl (stereo partly drawn) [F1275, 2-Chloro-5-((1R,3R)-2,2-dichloro-3-(4-fluoro-3-(trifluoromethyl)phenyl)cyclopropane-1-carboxamido)-N-(3-(2,2-difluorocyclopropane-1-carboxamido)-2,4-difluorophenyl)benzamide] | 50 to 100 | 50 to 100 | A (80–100)
O=C(Nc1ccc(F)c(NC(=O)C(F)(F)Br)c1F)c1cc(NC(=O)[C@H]2[C@H](c3ccc(F)c(C(F)(F)F)c3)C2(Cl)Cl)ccc1Cl [F1276, N-(3-(2-Bromo-2,2-difluoroacetamido)-2,4-difluorophenyl)-2-chloro-5-((1R,3R)-2,2-dichloro-3-(4-fluoro-3-(trifluoromethyl)phenyl)cyclopropane-1-carboxamido)benzamide] | 50 to 100 | 50 to 100 | A (80–100)
CS(=O)(=O)N(c1c(F)ccc(NC(=O)c2cc(NC(=O)[C@H]3[C@H](c4ccc(F)c(C(F)(F)F)c4)C3(Cl)Cl)ccc2Cl)c1F)S(C)(=O)=O [F1277, 2-chloro-5-((1R,3R)-2,2-dichloro-3-(4-fluoro-3-(trifluoromethyl)phenyl)cyclopropane-1-carboxamido)-N-(2,4-difluoro-3-(N-(methylsulfonyl)methylsulfonamido)phenyl)benzamide] | 50 to 100 | 50 to 100 | A (80–100)
O=C(Nc1ccc(F)c(NS(=O)(=O)c2ccccc2)c1F)c1cc(NC(=O)[C@H]2[C@H](c3ccc(F)c(C(F)(F)F)c3)C2(Cl)Cl)ccc1Cl [F1295, 2-chloro-5-((1R,3R)-2,2-dichloro-3-(4-fluoro-3-(trifluoromethyl)phenyl)cyclopropane-1-carboxamido)-N-(2,4-difluoro-3-(phenylsulfonamido)phenyl)benzamide] | 50 to 100 | 50 to 100 | A (80–100)
